Results from the supplement of paper PMC10307832.

Key:
Experiment in all cases: relative viability (nuclei count vs DMSO), 5 days (fraction); higher = more cells survive
FG-4592 + Trametinib = compound: Cc1nc(C(=O)NCC(=O)O)c(O)c2ccc(Oc3ccccc3)cc12 [FG-4592] + CC(=O)Nc1cccc(-n2c(=O)n(C3CC3)c(=O)c3c(Nc4ccc(I)cc4F)n(C)c(=O)c(C)c32)c1 [Trametinib] (partner 0.02 µM)
Method in brief: (§1)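 One day after seeding in 1536-well plates, lung cancer cell lines were dosed by pin tool. Dosing was either single-drug or a fixed anchor-drug dose plus five library-drug doses (not always all listed) in √10 steps. After 5 days, nuclei were stained in one fix-and-stain step and counted on 4× images, and relative viability is the nuclei count of treated wells over that of vehicle wells, given as the median of duplicate plates.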

FG-4592 + Foretinib = compound: Cc1nc(C(=O)NCC(=O)O)c(O)c2ccc(Oc3ccccc3)cc12 [FG-4592] + COc1cc2c(Oc3ccc(NC(=O)C4(C(=O)Nc5ccc(F)cc5)CC4)cc3F)ccnc2cc1OCCCN1CCOCC1 [Foretinib] (partner 0.25 µM)
Method in brief: as §1

FG-4592 + Pictilisib = compound: Cc1nc(C(=O)NCC(=O)O)c(O)c2ccc(Oc3ccccc3)cc12 [FG-4592] + CS(=O)(=O)N1CCN(Cc2cc3nc(-c4cccc5[nH]ncc45)nc(N4CCOCC4)c3s2)CC1 [Pictilisib] (partner 1 µM)
Method in brief: as §1

IU1-47 + Dasatinib = compound: CC1=CC(=C(N1C2=CC=C(C=C2)Cl)C)C(=O)CN3CCCCC3 [IU1-47] + Cc1nc(Nc2ncc(C(=O)Nc3c(C)cccc3Cl)s2)cc(N2CCN(CCO)CC2)n1 [Dasatinib] (partner 0.075 µM)
Method in brief: as §1

Row | Cell Line | relative viability (FG-4592 + Trametinib; first compound 0.08 µM) | relative viability (FG-4592 + Trametinib; first compound 0.253 µM) | relative viability (FG-4592 + Trametinib; first compound 0.8 µM) | relative viability (FG-4592 + Trametinib; first compound 2.53 µM) | relative viability (FG-4592 + Trametinib; first compound 8 µM) | relative viability (FG-4592 + Foretinib; first compound 0.08 µM) | relative viability (FG-4592 + Foretinib; first compound 0.253 µM) | relative viability (FG-4592 + Foretinib; first compound 0.8 µM) | relative viability (FG-4592 + Foretinib; first compound 2.53 µM) | relative viability (FG-4592 + Foretinib; first compound 8 µM) | relative viability (FG-4592 + Pictilisib; first compound 0.08 µM) | relative viability (FG-4592 + Pictilisib; first compound 0.8 µM) | relative viability (FG-4592 + Pictilisib; first compound 2.53 µM) | relative viability (FG-4592 + Pictilisib; first compound 8 µM) | relative viability (IU1-47 + Dasatinib; first compound 0.08 µM) | relative viability (IU1-47 + Dasatinib; first compound 0.253 µM) | relative viability (IU1-47 + Dasatinib; first compound 0.8 µM) | relative viability (IU1-47 + Dasatinib; first compound 2.53 µM) | relative viability (IU1-47 + Dasatinib; first compound 8 µM) | relative viability (FG-4592 + Pictilisib; first compound 0.253 µM)
1 | NCI-H661 | 0.559 | 0.525 | 0.536 | 0.554 | 0.525 | 1.06 | 0.956 | 1.09 | 0.987 | 0.938 | 0.29 | 0.431 | 0.473 | 0.371 | 0.884 | 0.879 | 0.83 | 0.77 | 0.695 | 
2 | NCI-H1793 |  | 0.453 |  | 0.434 | 0.4 | 0.739 | 0.71 |  | 0.593 | 0.554 | 0.281 |  | 0.228 | 0.354 | 0.458 | 0.298 | 0.403 |  | 0.409 | 0.384
3 | NCI-H1734 | 0.719 | 0.631 | 0.618 | 0.733 | 0.559 | 0.792 | 0.812 | 0.806 | 0.884 | 0.75 | 0.417 | 0.405 | 0.482 | 0.491 | 0.493 | 0.531 | 0.461 |  | 0.406 | 0.47
4 | LXF-289 | 0.676 | 0.68 | 0.682 | 0.712 | 0.731 | 0.97 | 0.981 | 0.993 | 0.974 | 1.12 | 0.776 | 0.822 | 0.708 | 0.769 | 0.219 | 0.24 | 0.179 | 0.223 | 0.209 | 0.696
5 | H3255 | 0.6 | 0.547 | 0.5 | 0.602 | 0.532 | 0.848 | 0.752 | 0.881 | 0.903 | 0.947 | 0.396 | 0.51 | 0.44 | 0.5 | 0.371 | 0.491 | 0.385 | 0.366 | 0.387 | 0.472
6 | 201T | 0.691 | 0.695 | 0.719 | 0.772 | 0.708 | 1.11 | 1.04 |  | 1.15 | 1.07 | 0.642 | 0.584 | 0.695 | 0.675 | 0.542 | 0.604 | 0.622 |  | 0.587 | 0.644
7 | NCI-H2126 | 0.586 | 0.576 | 0.455 | 0.534 | 0.476 | 1.14 | 1.13 | 1.16 | 1.09 | 1.15 | 0.487 | 0.449 | 0.511 | 0.531 | 0.596 | 0.717 | 0.724 |  | 0.601 | 0.483
8 | HOP-62 | 0.399 | 0.354 | 0.353 | 0.392 | 0.334 | 1.13 | 1.03 | 1.12 | 1.05 | 0.986 | 0.831 | 0.455 | 0.651 | 0.657 | 0.673 | 0.652 | 0.709 | 0.531 | 0.564 | 0.55
9 | CAL-12T | 0.367 | 0.307 | 0.301 | 0.29 | 0.219 | 1.05 | 0.746 | 1.06 | 1.02 | 1.01 | 0.516 | 0.221 | 0.555 | 0.523 | 0.413 | 0.388 | 0.436 | 0.263 | 0.344 | 0.494
10 | NCI-H520 | 0.594 | 0.557 | 0.573 | 0.719 | 0.473 | 0.497 | 0.639 | 0.674 | 0.868 | 0.605 | 0.269 | 0.225 | 0.291 | 0.258 | 0.197 | 0.172 | 0.203 | 0.217 | 0.166 | 0.293
11 | NCI-H1755 | 0.792 | 0.74 | 0.729 | 0.827 | 0.725 | 0.907 | 0.905 | 0.857 | 0.929 | 0.921 | 0.303 | 0.306 | 0.442 | 0.444 | 0.455 | 0.528 | 0.426 | 0.409 | 0.36 | 0.4
12 | NCI-H2023 | 0.488 | 0.595 | 0.612 | 0.593 | 0.506 | 0.792 | 0.79 | 0.885 | 0.854 | 0.742 | 0.203 | 0.143 | 0.205 | 0.196 | 0.564 | 0.521 | 0.657 | 0.347 | 0.55 | 0.202
13 | NCI-H2009 | 0.32 | 0.181 | 0.262 | 0.31 | 0.162 | 1.21 | 1.11 | 1.13 | 1.14 | 1.11 | 0.718 | 0.647 | 0.671 | 0.749 | 0.257 | 0.263 | 0.293 | 0.231 | 0.241 | 0.653
